# Measured values published in PubChem BioAssay AID850 (SRMLSC, 2007).
# Calls of active or inactive are those of the source. The rule behind the calls is not given here.
# Key:
# [1] = concentration-response yeast growth inhibition under permissive conditions, counter-assay for yeast lifespan-shortening chemical project (AID 850); conditions: Saccharomyces cerevisiae growth inhibition, permissive control, measured here: maximum growth inhibition, stronger effect = higher value;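 note: growth read as optical density after one day of incubation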
# [2] = test system: Saccharomyces cerevisiae growth inhibition, permissive control; experiment: as above
structure (smiles),measurement,setting,value
CC1(C)C(C=C(Cl)Cl)C1C(=O)Nc1ccc([N+](=O)[O-])cc1 (stereo unspecified),inhibition,[1]; at 50 µM,15.4%
same,IC50,[2],> 100 µM (inactive)
COc1ccccc1N1CCN(C(CNC(=O)c2ccco2)c2cccnc2)CC1 (stereo unspecified),inhibition,[1]; at 50 µM,18.3%
same,IC50,[2],> 100 µM (inactive)
Oc1c(I)cc(I)c2cccnc12,inhibition,[1]; at 50 µM,74.8%
same,IC50,[2],17.1 µM
C=C(C)COc1ccc(-c2[nH]ncc2-c2ccccc2OC)c(O)c1,inhibition,[1]; at 0.781 µM,23%
same,IC50,[2],> 100 µM (inactive)
COc1ccc2cc(C(=O)O)ccc2c1,inhibition,[1]; at 50 µM,72.1%
same,IC50,[2],20.5 µM
C=C(C)COc1ccc(-c2[nH]ncc2-c2ccccc2)c(O)c1,inhibition,[1]; at 50 µM,86.8%
same,IC50,[2],38.6 µM
Cc1cc(C(=O)N/N=C/c2cccc([N+](=O)[O-])c2O)n[nH]1,inhibition,[1]; at 6.25 µM,19.4%
same,IC50,[2],> 100 µM (inactive)
COc1cc(CNCCN2CCOCC2)ccc1OCc1cccc(Cl)c1,inhibition,[1]; at 25 µM,12.3%
same,IC50,[2],> 100 µM (inactive)
CCOC(=O)c1c(N)sc(C(O)(C(F)(F)F)C(F)(F)F)c1-c1ccc(Cl)cc1,inhibition,[1]; at 0.781 µM,7.92%
same,IC50,[2],> 100 µM (inactive)
Cc1cc(C)nc(/N=c2/ssnc2Cl)c1,inhibition,[1]; at 6.25 µM,29.2%
same,IC50,[2],> 100 µM (inactive)
O=C1c2ccccc2NC(c2ccc(-c3cccc(Cl)c3)o2)N1O (stereo unspecified),inhibition,[1]; at 50 µM,52.3%
same,IC50,[2],47.1 µM
N#C/C(=N/O)c1nc(-c2ccc(F)cc2)cs1,inhibition,[1]; at 50 µM,78.8%
same,IC50,[2],15.9 µM
CCOC(=O)c1c(/N=C/c2cc([N+](=O)[O-])ccc2O)sc(C)c1C,inhibition,[1]; at 25 µM,52.7%
same,IC50,[2],39.9 µM
C/C(=N\Nc1ccc([N+](=O)[O-])cc1)c1ccc(N)cc1,inhibition,[1]; at 50 µM,94.4%
same,IC50,[2],6.04 µM
Cc1ccc(-n2nnc3c(=O)n(CC(=O)N4CCC(C)CC4)cnc32)cc1,inhibition,[1]; at 25 µM,17.4%
same,IC50,[2],> 100 µM (inactive)
Cc1nc2ccc(NC(=O)c3cc([N+](=O)[O-])cc([N+](=O)[O-])c3Cl)cc2s1,inhibition,[1]; at 50 µM,98.4%
same,IC50,[2],15.2 µM
CCOCCCNC(=O)c1ccc(Br)cc1,inhibition,[1]; at 1.563 µM,27.6%
same,IC50,[2],> 100 µM (inactive)
O=C(CSC1=NS(=O)(=O)c2ccccc21)Nc1ccccc1,inhibition,[1]; at 50 µM,17.7%
same,IC50,[2],> 100 µM (inactive)
Nc1nc2sc3c(c2c(=O)s1)CCCC3,inhibition,[1]; at 0.195 µM,24.4%
same,IC50,[2],> 100 µM (inactive)
CC1CCN(c2nc(/C=C/c3ccccc3)nc3ccccc23)CC1,inhibition,[1]; at 50 µM,100%
same,IC50,[2],22.2 µM
Cc1cccc(C(=O)Oc2csc(=S)n2C(=O)c2cccc(C)c2)c1,inhibition,[1]; at 50 µM,55.6%
same,IC50,[2],47.8 µM
O=C(Nc1cc(C(F)(F)F)ccc1Cl)C(Sc1cccc[n+]1[O-])c1ccccc1 (stereo unspecified),inhibition,[1]; at 50 µM,99.8%
same,IC50,[2],6.31 µM
Cc1nn2c(-c3ccncc3)nnc2c2ccccc12,inhibition,[1]; at 25 µM,73.2%
same,IC50,[2],11.8 µM
COc1ccc(-c2cc(C(=O)N3CCN(c4ncccn4)CC3)c3ccccc3n2)c(OC)c1,inhibition,[1]; at 12.5 µM,23.4%
same,IC50,[2],> 100 µM (inactive)
Clc1ccc(CCNc2nc3ccccc3s2)cc1,inhibition,[1]; at 0.195 µM,-6.19%
same,IC50,[2],> 100 µM (inactive)
Clc1ccc(N/N=C/c2cccnc2)cc1,inhibition,[1]; at 25 µM,78.3%
same,IC50,[2],19 µM
Cc1cccc(C(=O)NC(=S)NNC(=O)c2cccs2)c1,inhibition,[1]; at 50 µM,76%
same,IC50,[2],19.9 µM
CCCn1c(C(C)NC(C)=O)nc2ccccc21 (stereo unspecified),inhibition,[1]; at 12.5 µM,9.66%
same,IC50,[2],> 100 µM (inactive)
CNC(=O)Oc1cccc(-c2cn3cc(OC(=O)NC)ccc3n2)c1,inhibition,[1]; at 50 µM,97.6%
same,IC50,[2],6.45 µM
CCCCCCCCCCCCCCCC[n+]1ccc(C(N)=O)cc1,inhibition,[1]; at 25 µM,100%
same,IC50,[2],0.545 µM
COc1ccc(NC(=O)C2CCCN2S(=O)(=O)c2cccc3cccnc23)c(OC)c1 (stereo unspecified),inhibition,[1]; at 50 µM,102%
same,IC50,[2],5.82 µM
CC(NC(=O)Nc1ccc(Cl)cc1)C(c1cccs1)N1CCOCC1 (stereo unspecified),inhibition,[1]; at 0.781 µM,8.7%
same,IC50,[2],> 100 µM (inactive)
CN(C)CCNC=C(C(=O)Nc1ccc(Cl)cc1Cl)C(=O)Nc1ccc(Cl)cc1Cl,inhibition,[1]; at 25 µM,101%
same,IC50,[2],18.6 µM
CC(C)N=c1scc(-c2cccs2)n1/N=C/c1ccc(O)c(O)c1O,inhibition,[1]; at 0.195 µM,2.13%
same,IC50,[2],> 100 µM (inactive)
Nc1[nH]c(=O)ncc1F,inhibition,[1]; at 50 µM,84.8%
same,IC50,[2],17.5 µM
O=C(ONC1=NCCCCC1)c1ccc(Cl)cc1,inhibition,[1]; at 50 µM,99.8%
same,IC50,[2],7.02 µM
O=C(O)c1ccccc1Nc1ccc([N+](=O)[O-])cc1,inhibition,[1]; at 50 µM,98%
same,IC50,[2],14.6 µM
Cc1nc(Cl)c2oc3ccccc3c2n1,inhibition,[1]; at 50 µM,15.8%
same,IC50,[2],> 100 µM (inactive)
Cc1ccc(N2NC(C)(c3cccs3)NC2=S)cc1 (stereo unspecified),inhibition,[1]; at 25 µM,94.1%
same,IC50,[2],12.1 µM
Cc1ccc(S(=O)(=O)Nc2ccc(SC(F)F)cc2)c(C)c1,inhibition,[1]; at 0.781 µM,21.4%
same,IC50,[2],> 100 µM (inactive)
NC(=O)c1ccc(N=Cc2ccc([N+](=O)[O-])s2)cc1,inhibition,[1]; at 50 µM,101%
same,IC50,[2],11 µM
COc1ccc2c(c1)c1nnc(SC)nc1n2C,inhibition,[1]; at 50 µM,63.9%
same,IC50,[2],48.3 µM
Cc1nn(-c2cccc(C(F)(F)F)c2)c(Cl)c1/C=N/Nc1cccc(C(=O)O)c1,inhibition,[1]; at 50 µM,81.6%
same,IC50,[2],41.2 µM
O=c1cc(C(F)(F)F)[nH]c2c(C(F)(F)F)cccc12,inhibition,[1]; at 50 µM,97.5%
same,IC50,[2],11.2 µM
COc1ccc(/C(C)=N/NC(=O)c2ccc(CSc3cccc4cccnc34)cc2)cc1OC,inhibition,[1]; at 6.25 µM,12.5%
same,IC50,[2],> 100 µM (inactive)
Cc1cc(C)c2c(N=NN3CCOCC3)[nH]nc2n1,inhibition,[1]; at 50 µM,5.41%
same,IC50,[2],> 100 µM (inactive)
CC(C)(C)c1cc(C(c2cccnc2)N2CCN(CCO)CC2)cc(C(C)(C)C)c1O (stereo unspecified),inhibition,[1]; at 50 µM,53.3%
same,IC50,[2],48.7 µM
O=c1[nH][nH]cc1C=Nc1ccccc1O,inhibition,[1]; at 1.563 µM,12.5%
same,IC50,[2],> 100 µM (inactive)
CC1=C(C)/C(=N\OS(=O)(=O)c2ccccc2)C=CC1=O,inhibition,[1]; at 50 µM,99%
same,IC50,[2],6.14 µM
CC(C)(C)c1ccc(-c2nc(-c3ccncc3)no2)cc1,inhibition,[1]; at 50 µM,48.7%
same,IC50,[2],47 µM
CC(Oc1ccc(Cl)cc1Cl)C(=O)NC1=NN(c2ccccc2)C(=O)C1 (stereo unspecified),inhibition,[1]; at 50 µM,98.6%
same,IC50,[2],16.6 µM
Cc1ccnn2cc3c(=O)n(C)c(=O)n(C)c3c12,inhibition,[1]; at 50 µM,64.1%
same,IC50,[2],37.6 µM
CCCCCC/C(=N/O)c1ccccn1,inhibition,[1]; at 50 µM,99.6%
same,IC50,[2],9.77 µM
CCc1cccc(C)c1NC(=S)NCCc1c(C)[nH]c2ccc(C)cc12,inhibition,[1]; at 50 µM,8.58%
same,IC50,[2],> 100 µM (inactive)
C=C(C)COc1ccc(-c2[nH]ncc2Oc2cccc(OC)c2)c(O)c1,inhibition,[1]; at 12.5 µM,20.1%
same,IC50,[2],> 100 µM (inactive)
COc1ccc(-c2n[nH]c(C)c2-c2ccc(Cl)cc2)c(O)c1,inhibition,[1]; at 50 µM,99%
same,IC50,[2],33.9 µM
Oc1c(CN2CCN(c3ccc(F)cc3)CC2)cc(Cl)c2cccnc12,inhibition,[1]; at 50 µM,100%
same,IC50,[2],12.2 µM
OC(COc1ccc2ccccc2c1Br)Cn1cnc(-c2ccccc2)c1 (stereo unspecified),inhibition,[1]; at 50 µM,20.9%
same,IC50,[2],> 100 µM (inactive)
CCCCC(=O)NNC(=S)NC(=O)CCC,inhibition,[1]; at 50 µM,75.2%
same,IC50,[2],29.7 µM
CC1=NNC(=O)/C1=C\c1cn(-c2ccccc2)nc1-c1cccs1,inhibition,[1]; at 50 µM,98%
same,IC50,[2],8.18 µM
Cc1ccc(NC(=O)ON=C2CCCC2)cc1,inhibition,[1]; at 50 µM,99.4%
same,IC50,[2],15.2 µM
C/C(=N\Nc1ccc(Cl)cc1)c1ccccn1,inhibition,[1]; at 50 µM,97.1%
same,IC50,[2],10.1 µM
COc1ccc(C(=O)NC(=S)NNC(=O)c2cnccn2)cc1,inhibition,[1]; at 50 µM,71.2%
same,IC50,[2],14.2 µM
CC1=NOC(=O)/C1=C\c1ccc(-c2ccc(Cl)cc2Cl)o1,inhibition,[1]; at 50 µM,80.5%
same,IC50,[2],32.3 µM
CCCn1c(Nc2nc3ccccc3n2C)nc2ccccc21,inhibition,[1]; at 50 µM,97.9%
same,IC50,[2],45.1 µM
C(=N\c1ncnc2sccc12)/NOCc1ccccc1,inhibition,[1]; at 50 µM,98.6%
same,IC50,[2],7.68 µM
COc1ccc(NC(=O)CC2SC(=Nc3ccccc3)NC2=O)c(OC)c1 (stereo unspecified),inhibition,[1]; at 25 µM,23.9%
same,IC50,[2],> 100 µM (inactive)
c1ccc2c(c1)oc1c(N3CCOCC3)ncnc12,inhibition,[1]; at 25 µM,19.7%
same,IC50,[2],> 100 µM (inactive)
COc1ccc(OC)c(-c2c3cc(O)c(=O)cc-3oc3cc(O)c(O)cc23)c1,inhibition,[1]; at 50 µM,63.5%
same,IC50,[2],28.1 µM
Cc1ccc(Oc2nc(CN3CCOCC3)nc3sc4c(c23)CCC(C)C4)cc1C (stereo unspecified),inhibition,[1]; at 50 µM,93.4%
same,IC50,[2],23.5 µM
Cc1ccc(N/N=C/c2c(O)cc(C)oc2=O)cc1,inhibition,[1]; at 50 µM,99.4%
same,IC50,[2],11.8 µM
CC(C)C(=O)NC(c1ccccc1)c1cc([N+](=O)[O-])c2cccnc2c1O (stereo unspecified),inhibition,[1]; at 50 µM,93.4%
same,IC50,[2],29.6 µM
CCn1c2ccccc2c2cc(Nc3cc(C)nc4ncnn34)ccc21,inhibition,[1]; at 6.25 µM,14.4%
same,IC50,[2],> 100 µM (inactive)
COc1ccc(OC)c(CCNC(=O)Cn2sc3nc(C)cc(C)c3c2=O)c1,inhibition,[1]; at 0.391 µM,13%
same,IC50,[2],> 100 µM (inactive)
Cc1ccc(-n2c(C)cc(C(=O)COC(=O)c3ccc[nH]c3=O)c2C)cc1C,inhibition,[1]; at 50 µM,99.6%
same,IC50,[2],10.8 µM
Fc1ccc(Br)cc1C1C=C(c2cccnc2)Nc2ncnn21 (stereo unspecified),inhibition,[1]; at 50 µM,26.3%
same,IC50,[2],> 100 µM (inactive)
O=C1C2C3C=CC(CO)(O3)C2C(=O)N1c1ccccc1-c1ccccc1 (stereo unspecified),inhibition,[1]; at 6.25 µM,19.9%
same,IC50,[2],> 100 µM (inactive)
N#CSCC(=O)c1cccc2ccccc12,inhibition,[1]; at 12.5 µM,26.9%
same,IC50,[2],> 100 µM (inactive)
Cc1[nH]n(-c2ccccc2)c(=O)c1/C=N/N1C(=O)c2ccc3c4c(ccc(c24)C1=O)CC3,inhibition,[1]; at 0.781 µM,8.51%
same,IC50,[2],> 100 µM (inactive)
Oc1ccc(-c2csc(-c3ccccc3)n2)cc1O,inhibition,[1]; at 50 µM,99.8%
same,IC50,[2],21.9 µM
N/C(Cc1ccc(Cl)cc1)=N\OC(=O)C1CCCCC1,inhibition,[1]; at 50 µM,98.8%
same,IC50,[2],15.8 µM
CCCCCCCCCCn1c2c(c(=N)c3c1CCC3)CCC2,inhibition,[1]; at 50 µM,100%
same,IC50,[2],12 µM
O=C(NC1CCCCC1)Sc1ccc(Cl)cc1,inhibition,[1]; at 50 µM,24.2%
same,IC50,[2],> 100 µM (inactive)
